The values that follow come from patent publication US20260174682A1, “GAMMA-AMINOBUTYRIC ACID DERIVATIVE COMPRISING POLYCYCLIC STRUCTURE, METHOD FOR PREPARING SAME, AND USE THEREOF” (ZHONGSHAN INSTITUTE FOR DRUG DISCOVERY, SIMM, CAS., priority 2022, published 2026).

Where two headings read alike, the source gives them in different places. Marks after values point to notes of the source that are not given here.

Assay [1] concerns mouse model with subcutaneous injection of pentylenetetrazole (sc-PTZ). Description: Antiepileptic effect in mouse model with subcutaneous injection of pentylenetetrazole (sc-PTZ). In kind it is in vivo. As for the experimental part: A negative vehicle control group, a positive drug control group (pregabalin and gabapentin) and a test group of the compounds of the present application were set. Male ICR mice with a body weight of 22±2 g were selected. […] After fasted for 12 h, the mice were administered the compounds of the present application or the control drugs, and then subcutaneously injected with pentylenetetrazole (PTZ) to induce epilepsy seizure behaviors after a certain time interval (2 h for pregabalin, 1 h for gabapentin, and 3 h for the compounds of the present application). In an induction model, pentylenetetrazole (PTZ) was dissolved in normal saline and administered to the mice through the way of subcutaneous injection (10 mL/kg, administration dose 100 mg/kg). After the injection of PTZ, behavioral observations on the mice were conducted for 1 h, and the latent periods and numbers of the mice with convulsive seizures, clonic seizures, tonic seizures and death after the injection of PTZ were recorded.
Statistical method: Protection rates and mortality of different administration groups were separately compared with those of the vehicle control group to carry out a Fisher's exact test. The seizure time and the latent periods were analyzed by one-way ANOVA.

The test system of assay [2] is mouse 6-Hz psychomotor seizure model. The assay can be described thus: Antiepileptic effect in mouse 6-Hz psychomotor seizure model. In kind it is in vivo. The settings on record: 6-Hz model, C57BL/6 mice, gavage, dose 300 mg/kg. How it is done:
A negative vehicle control group, a positive drug control group (pregabalin and gabapentin) and a test group of the compounds of the present application were set. Male C57BL/6 mice with a body weight of 20±2 g were selected. […] After fasted for 12 h, the mice were administered the compounds of the present application or the control drugs, and then subjected to 6-Hz electrical stimulation to induce epilepsy seizure behaviors after a certain time interval (2 h for pregabalin, 1 h for gabapentin, 1 h for levetiracetam, and 3 h for the compounds of the present application). In an induction model, when the stimulation was performed with a Model 4100 stimulator (A-M Systems, the United States), rear necks of the mice were immobilized by hands on a feeding cage, a corneal electrode was moisten with normal saline and allowed to gently contact bilateral corneas of the mice, the electrical stimulator was trod by a foot to give the mice the electrical stimulation with a stimulation parameter of 6-Hz, a one-way square wave of 32 mA, a wave width of 0.2 ms and a stimulation duration of 3 sec, and timing was performed with a stopwatch during the stimulation. After the electrical stimulation was completed, the mice with the seizure behaviors lasting for less than 7 sec were regarded as being protected by the drugs, and the mice with the seizure behaviors lasting for more than 7 sec were regarded as being not protected from the epilepsy by the drugs. Response situations of the animals were observed and recorded, and obtained data were counted to calculate protection rates of the compounds.
Statistical method: The protection rates of different administration groups were separately compared with that of the vehicle control group to carry out a Fisher's exact test.

For assay [3], the system named is mouse maximum electroshock model (MES). Description: Antiepileptic effect in mouse maximum electroshock model (MES). In kind it is in vivo. The settings on record: MES, ICR mice, gavage, dose 300 mg/kg. How it is done:
A negative vehicle control group, a positive drug control group (pregabalin and gabapentin) and a test group of the compounds of the present application were set. Male ICR mice with a body weight of […] were selected. […] After fasted for 12 h, the mice were administered the compounds of the present application or the control drugs according to the body weight, and then subjected to electrical stimulation to induce generalized tonic-clonic seizure behaviors after a certain lime interval (2 h for pregabalin, 1 h for gabapentin, and 3 h for the compounds of the present application). A YLS-9A electrophysiological stimulator (Shanghai Xinruan Information Technology Co., Ltd.) was used in an induction model, and parameters were set as follows: configuration 8, stimulation voltage 160 V, wave number 90. When the electrical stimulation was performed, ears on both sides of the mice were firstly wiped with normal saline and then given the electrical stimulation for 1 lime with ear clip electrodes. Tonic straightening of hind limbs was used as a standard for epilepsy seizures. The animals with the tonic straightening of hind limbs were regarded as not being protected by the drugs, and the animals without the tonic straightening of hind limbs were regarded as being protected by the drugs. Response situations of the animals were observed and recorded, and obtained data were counted to calculate protection rates of the compounds.
Median effective doses (ED50) of the compounds to be tested for animal protection were calculated by a least square method (Graphpad Prism 5) with an administration dose-protection rate curve.

The subject of a further assay is postherpetic neuralgia. The settings on record: cited from earlier work.
The subject of assay [4] is diabetic peripheral neuropathic pain. The settings on record: cited from earlier work.
Setting [5] is: sc-PTZ 100 mg/kg, ICR mice, intraperitoneal 30 mg/kg (own compounds calculated by free base), 1 h observation.

With `NCC1(CC(=O)O)CCCCC1` [Gabapentin], in assay [1] (setting [5]), the Clonic seizure incidence is reported as 10/10, the Convulsive seizure incidence is reported as 10/10, the “Generalized clonic seizure incidence” value is 10/10 and the Mortality is on record as 7/10. Also, the Tonic seizure incidence in assay [1] (setting [5]) is reported as 6/10. Also, the “improvement of the convulsive seizure incidence and the mortality” value in assay [1] (sc-PTZ mice, 30 mg/kg) is listed as “does not significantly improve”. The “latent periods of generalized clonic seizures, tonic seizures and death” value in assay [1] (sc-PTZ mice, 30 mg/kg (calculated by free base), FIG. 6) is “not effective”. In addition, in assay [2], the “Number of animals with clonic seizures/total number” value was 2/4 and the “Protection rate (%)” value is reported as 50.0 * %. In addition, in assay [3], the “Number of animals with tonic straightening of hind limbs/total number of detected animals” value was 2/8 and the “Protection rate (%)” value is on record as 75.0%. The clinical effective rate with postherpetic neuralgia (daily dose up to 1,800 mg/day) is 32%. For the same compound, in the assay with postherpetic neuralgia (daily dose up to 2,400 mg/day), the clinical effective rate is given as 34%. The clinical effective rate in the assay on postherpetic neuralgia (daily dose up to 3,600 mg/day) was 43%.
Regarding `CNCC[C@H](Oc1cccc2ccccc12)c1cccs1` [duloxetine], the results for the clinical effective rate in assay [4] (60 mg/day) and in assay [4] (120 mg/day) were 49% and 52%, respectively.
